# Experimental data published in patent US20230203174A1, “COMPOSITION FOR PREVENTING OR ALLEVIATING CELLULAR SENESCENCE” (SEOUL NATIONAL UNIVERSITY R&DB FOUNDATION, priority 2021, published 2023).
# Read-outs that look alike come from different tables or passages of the source.
# Legend:
# [1] = tested on: CCL2, CCL5, and CCL7 mRNA; assay: RT-qPCR of SASP factors CCL2, CCL5, CCL7; format: cell-based, mouse
# Text: (§1) RNA Preparation and Quantitative Real-Time PCR (RT-qPCR)
# MC3T3-E1 cells [2] = assay: SA-β-gal staining of senescent cells; format: cell-based, mouse
# Description: Senescence Associated-β-Galactosidase (SA-β-gal) Staining
# SA-β-gal staining was performed with reference to the paper (2009) published by the Debacq-Chainiaux group. Cells cultured on coverslips were fixed in 4% paraformaldehyde at room temperature for 6 min. After washing cells three times with PBS, the cells were reacted for 16-24 hours in a staining solution [40 mM Na2HPO4, pH 6.0, 150 mM NaCl, 2 mM MgCl2, 5 mM K3Fe(CN)6, 5 mM K4Fe(CN)6 and 1 mg/ml X-Gal]. After washing 3 times with PBS, it was permeabilized with PBS containing 0.2% Triton X-100 at room temperature for 15 minutes. For nuclear staining, a mounting solution containing 4′,6-diamidino-2-phenylindole (DAPI) was used (AR-6501-01; ImmunoBioScience Corp., Mukilteo, Wash., USA). Images were acquired using an Eclipse TS-100 inverted microscope (Nikon). Using the ImageJ program, nucleus (DAPI) and SA-b-gal positive cells were counted in each image and compared as an average of % SA-β-gal positive cells (SA-β-gal positive cells/nuclear number×100) using the ImageJ program using 10 images of different parts per group.
# Cdkn1a (p21) mRNA = assay: RT-qPCR of senescence marker Cdkn1a; format: cell-based, mouse
# Text: as §1
# MC3T3-E1 cells [3] = assay: Osteoblast differentiation by ALP and Alizarin Red S staining; format: cell-based, mouse
# Text: In addition, it was shown that and a level of protein and an expression of cdkn1a (p21) mRNA which is a molecular marker of cellular senescence, were increased by H2O2 treatment (B and C).
# PADI2 [4] = conditions: human-derived mesenchymal stromal cells (hMSC), 100 μM H2O2
# Description: (§2) Protein was extracted using a PRO-PREP protein extraction solution (Cat #17081, iNtRON, Korea) according to a manufacturer's protocol. The same amount of protein was transferred to a polyvinylidene fluoride (PVDF) membrane after sodium dodecyl sulfate polyacrylamide gel electrophoresis (SDS-PAGE). After blocking with 5% non-fat milk, membranes were blotted in primary antibody solution at 4° C. in a refrigerator overnight. A membrane reacted with a primary antibody was washed 3 times every 5 minutes with PBS-0.05% Tween 20 solution, then reacted with a secondary antibody for 1-2 hours at room temperature, and then the membrane was washed 3 times with PBS-0.05% Tween 20 solution for 5 minutes. Thereafter, the images were acquired on an ImageQuant LAS4000 Mini (GE Healthcare) using chemiluminescence (Clarity™ Western ECL Substrate, #170-5060; Bio-Rad). α-Tubulin or β-actin was used as a protein loading control.
# Total RNA was isolated using the RNeasy Mini Kit (Qiagen, Hilden, Germany). Total RNA (1 μg) was reverse transcribed into cDNA using PrimeScript RT Master Mix (Perfect Real Time) (RR036A; TaKaRa, Japan) and a real-time PCR was performed on an STEPONEPLUS™ Real-Time PCR System (APPLIED BIOSYSTEMS™) instr μMent using TB GREEN® PREMIX EX TAQ™ (RR420A; TaKaRa). […]
# PADI2 [5] = assay: PADI2 expression (RT-qPCR, Western blot) in MC3T3-E1 cells; format: cell-based, mouse
# Text: as §1
# [6] = tested on: NFκB RelA transcription factor; conditions: MC3T3-E1 cells, 100 μM H2O2 for 24 h
# Description: After collecting cells with PBS, a cell pellet was equally divided into two tubes for whole-cell lysate and cell fractionation. The whole-cell lysate prepared with 100 μL of lysis buffer composed of 25 mM Tris-HCl pH 7.4, 150 mM NaCl, 1% NP-40, 1 mM EDTA, 5% glycerol, protease inhibitor cocktail (Roche, #11-836-153-001), phosphatase inhibitor cocktail 2 and 3 (Sigma-Aldrich, P5726 and P004 SEQ ID NO: 4). The nuclear-cytoplasmic fraction was isolated using NEPER™ nuclear and cytoplasmic extraction reagents (78855; Life Technologies, Carlsbad, Calif., USA) according to a manufacturer's protocol. Protein concentration was determined using the Pierce™ BCA Protein Assay Kit (Thermo Fisher Scientific). The whole-cell lysate, a cytoplasmic extract and a nuclear extract were separated by SDS-PAGE, transferred to PVDF membrane, and then Western blot analysis was performed with designated primary and secondary antibodies. Tubulin and Lamin A/C were used as cytoplasmic and nuclear markers, respectively.
# Cells cultured on coverslips were fixed in 4% paraformaldehyde, blocked with PBS containing 2% BSA, and then reacted in a refrigerator overnight in a primary antibody solution. […] A degree of fluorescence expression was observed using a confocal microscope (LSM 800, Carl Zeiss), and representative cells were selected and photographed.
# p21 = conditions: MC3T3-E1 cells, H2O2 treatment
# Description: as §2
# [7] = 1 μM Bay11-7082 co-treated with 100 μM H2O2
# [8] = Padi2 knockdown plus NFκB inhibition
Compound,"expressions of CCL2, CCL5, and CCL7 (mRNA levels) increased by H2O2 ([1]; combined with H2O2 treatment)",number of senescent cells increased by H2O2 alone (MC3T3-E1 cells [2]; [7]),number of senescent cells increased by Padi2 knockdown (MC3T3-E1 cells [2]; [8]),expression of Cdkn1a (Cdkn1a (p21) mRNA; [7]),Cdkn1a expression increased by Padi2 knockdown (Cdkn1a (p21) mRNA; [8]),function degradation of osteoblast (ALP and ARS staining) (MC3T3-E1 cells [3]; caused by excessive ROS and Padi2 knockdown),"CCL2, CCL5, and CCL7 in SASP (RNA-seq and RT-qPCR) ([1]; upon H2O2 treatment)",expression of PADI2 (mRNA level and protein level) (PADI2 [4]),"number of SA-β-gal positive cells (MC3T3-E1 cells [2]; MC3T3-E1 cells, 50 μM or 100 μM H2O2 for 3 days)","expression of cdkn1a (p21) mRNA (Cdkn1a (p21) mRNA; MC3T3-E1 cells, H2O2 treatment)","Padi2 mRNA level (PADI2 [5]; MC3T3-E1 cells, 100 μM H2O2 for 1, 4, and 7 days in differentiation medium, RT-qPCR)","expression of PADI2 (mRNA level and protein level) (PADI2 [5]; mouse-derived MC3T3-E1 cells, 100 μM H2O2)",NFκB RelA activation and transfer from cytoplasm to nucleus [6],level of p21 protein (p21),"osteoblast differentiation function (ALP and Alizarin Red S staining) (MC3T3-E1 cells [3]; MC3T3-E1 cells, excessive ROS (H2O2))"
Cc1ccc(S(=O)(=O)/C=C/C#N)cc1 [Bay11-7082],significantly reduced,reduced,decreased,reduced,decreased,restored,,,,,,,,,
"OO [H2O2, hydrogen peroxide]",,,,,,,significantly increased,significantly reduced,increased in a H2O2 concentration-dependent manner,increased,significantly reduced,significantly reduced,migration to the nucleus was observed,increased,significantly inhibited
